Here are results for ten compounds from ChEMBL document CHEMBL1201862, “PubChem BioAssay data set” (2004).

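A five-concentration, 48-hour dose response in 96-well plates underlies each endpoint, interpolated linearly between surrounding concentrations. At the GI50, growth is halved.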 Active and inactive are the calls of the source. Rule as the data show it: active = GI50 up to about 1.1 µM and inactive = higher. Where only a bound is given, the exact number is not on record here.

Among the test systems are EKVX; 786-0; OVCAR-3; SR; RXF 393; NCI-H23; DU-145; COLO 205; K562; NCI-H226; A549; ACHN; HL-60; Malme-3M; M14; UACC-257; MDA-N; SN12C; CAKI-1; MOLT-4.
Holding throughout (assay): NCI-60 cell line screen, 48 h

With `COc1ccc(Cc2ccccc2C(=O)O)c2ccccc12`, the GI50 in the assay with EKVX was 26.4 µM (inactive); with 786-0 it was 34.2 µM (inactive); in the assay on OVCAR-3, 20.7 µM (inactive); in the assay on SR, 31.5 µM (inactive); in the assay with RXF 393 it was 44.3 µM (inactive); with NCI-H23 it was 25.5 µM (inactive). Further, the GI50 was 37.5 µM (inactive) in the assay on DU-145; 17.9 µM (inactive) with COLO 205; 37 µM (inactive) in the assay with K562; 39.4 µM (inactive) with NCI-H226; 33 µM (inactive) in the assay on A549; 31.2 µM (inactive) with ACHN. Besides, the GI50 in the assay on HL-60 was 21 µM (inactive); in the assay with Malme-3M it was 21.8 µM (inactive); in the assay with M14 it was 35.6 µM (inactive); in the assay with UACC-257 it was 24.7 µM (inactive); in the assay with MDA-N, 27.6 µM (inactive); with SN12C it was 29.2 µM (inactive). In addition, the GI50 in the assay on CAKI-1 is 35.3 µM (inactive).

For `Cc1cc(C)c2c(c1)CC1(Cc3c(C)cc(C)cc3C1=O)C2=O` (stereo not given), the GI50 in the assay on EKVX, with 786-0, with MOLT-4, in the assay with OVCAR-3, with SR and with RXF 393 was > 100 µM (inactive) in each case. For the same compound, the GI50 in the assay on DU-145 is > 100 µM (inactive); in the assay with COLO 205, > 100 µM (inactive); with K562, > 100 µM (inactive); with NCI-H226 it was > 100 µM (inactive); with A549, 98.6 µM (inactive); with ACHN, > 100 µM (inactive). Besides, the GI50 with HL-60 is > 100 µM (inactive); in the assay with Malme-3M, 92.9 µM (inactive); with M14 it was > 100 µM (inactive); in the assay with UACC-257, > 100 µM (inactive); in the assay with MDA-N it was > 100 µM (inactive); in the assay on SN12C, > 100 µM (inactive). Further, in the assay on CAKI-1, the GI50 was > 100 µM (inactive).

For the compound `O=C1C=CC(=O)c2c1cc([N+](=O)[O-])c1ccoc21`, the GI50 with EKVX is 17.8 µM (inactive); in the assay on 786-0 it was 1.77 µM (inactive); in the assay on MOLT-4 it was 0.942 µM (active); in the assay on OVCAR-3 it was 11.5 µM (inactive); in the assay with SR, 5.37 µM (inactive); with RXF 393, 1.97 µM (inactive). The GI50 in the assay with NCI-H23 was 22.6 µM (inactive); in the assay with DU-145, 9.06 µM (inactive); with COLO 205 it was 2.49 µM (inactive); in the assay with K562, 2.75 µM (inactive); in the assay on NCI-H226, 26.6 µM (inactive); in the assay with A549, 20.9 µM (inactive). The GI50 in the assay on ACHN was 1.82 µM (inactive); in the assay with HL-60, 0.743 µM (active); in the assay on M14 it was 6.17 µM (inactive); with UACC-257, 10.7 µM (inactive); with MDA-N, 17.1 µM (inactive); in the assay with SN12C it was 15.2 µM (inactive). Besides, the GI50 in the assay on CAKI-1 was 1.6 µM (inactive).

Take `CCOP(=O)(Cc1nc(C#N)c(N)o1)OCC`: the GI50 in the assay with EKVX, in the assay on 786-0, in the assay with MOLT-4, in the assay on OVCAR-3, in the assay with SR and in the assay on RXF 393 was > 100 µM (inactive) throughout. In addition, the GI50 in the assay on DU-145, with COLO 205, in the assay with K562, in the assay on NCI-H226, in the assay with ACHN and in the assay on HL-60 was > 100 µM (inactive) each time. Further, the GI50 with Malme-3M, with UACC-257, in the assay with MDA-N, with SN12C and in the assay with CAKI-1 was > 100 µM (inactive) each time.

Regarding `CCSC1=CC(=O)c2nc3ccccc3c3ccnc1c23`, the GI50 in the assay on EKVX was 2.58 µM (inactive); in the assay with 786-0, 3.04 µM (inactive); in the assay with MOLT-4, 2.64 µM (inactive); in the assay with OVCAR-3, 2.56 µM (inactive); in the assay on SR, 2.7 µM (inactive); in the assay on RXF 393, 4.5 µM (inactive). In addition, the GI50 with NCI-H23 was 2.64 µM (inactive); in the assay on DU-145, 10.8 µM (inactive); in the assay with COLO 205 it was 8.15 µM (inactive); with K562 it was 1.35 µM (inactive); with NCI-H226, 10.6 µM (inactive); in the assay on A549, 7.8 µM (inactive). In addition, the GI50 in the assay with ACHN was 3.65 µM (inactive); with HL-60 it was 2.06 µM (inactive); in the assay with Malme-3M it was 1.67 µM (inactive); with M14 it was 2.38 µM (inactive); in the assay with UACC-257, 1.95 µM (inactive); in the assay on MDA-N it was 1.95 µM (inactive). Moreover, the GI50 is 2.64 µM (inactive) in the assay with SN12C and 3.82 µM (inactive) in the assay on CAKI-1.

`Cc1cn(CCCCOC(=O)NC(CCCNC(N)=O)C(=O)O)c(=O)[nH]c1=O` (stereo not given): the GI50 with EKVX, in the assay with 786-0, in the assay with MOLT-4, in the assay with OVCAR-3, in the assay with SR and in the assay on RXF 393 was > 100 µM (inactive) each time. Also, the GI50 in the assay on NCI-H23, in the assay on DU-145, in the assay with COLO 205, in the assay with K562, in the assay with NCI-H226 and in the assay with A549 was > 100 µM (inactive) in each case. The GI50 with ACHN, with HL-60, with M14, in the assay with UACC-257, in the assay with MDA-N and in the assay on SN12C was > 100 µM (inactive) in each case. The GI50 in the assay on CAKI-1 was > 100 µM (inactive).

Regarding `CCOC(=O)C(=NN(C)c1ncccc1N)C(=O)OCC`, the GI50 is 29.6 µM (inactive) with 786-0; 21.5 µM (inactive) in the assay with MOLT-4; 30.7 µM (inactive) in the assay with OVCAR-3; 36.2 µM (inactive) in the assay on SR; 84.9 µM (inactive) in the assay on RXF 393; 45.5 µM (inactive) in the assay with NCI-H23. Also, the GI50 with DU-145 is > 100 µM (inactive); with COLO 205, 14.4 µM (inactive); with K562 it was 25.4 µM (inactive); with NCI-H226, 21.6 µM (inactive); in the assay on A549, > 100 µM (inactive); in the assay with HL-60 it was 15.1 µM (inactive). The GI50 with Malme-3M was 29.1 µM (inactive); with M14, 32.5 µM (inactive); in the assay on UACC-257, 24.4 µM (inactive); in the assay with MDA-N it was 34.8 µM (inactive); in the assay with SN12C it was 24.7 µM (inactive); in the assay with CAKI-1, 33.3 µM (inactive).

Consider `COc1ccc2c(c1)C1=NCCN(CCN(C)C)c3ccc([N+](=O)[O-])c(c31)N2`, for which the GI50 with EKVX is 0.736 µM (active); with 786-0, 0.255 µM (active); with MOLT-4, 0.355 µM (active); with OVCAR-3, 0.499 µM (active); in the assay on SR, 0.404 µM (active); with RXF 393 it was 0.757 µM (active). For the same compound, the GI50 was 0.701 µM (active) in the assay with NCI-H23; 0.48 µM (active) in the assay on DU-145; 0.364 µM (active) with K562; 2.17 µM (inactive) in the assay on NCI-H226; 0.417 µM (active) in the assay on A549; 0.191 µM (active) in the assay on ACHN. For the same compound, the GI50 in the assay with HL-60 was 0.427 µM (active); in the assay with Malme-3M, 0.431 µM (active); in the assay on M14 it was 0.489 µM (active); in the assay with UACC-257 it was 1.38 µM (inactive); with MDA-N, 0.542 µM (active); in the assay on SN12C, 0.568 µM (active). Further, in the assay on CAKI-1, the GI50 is 0.56 µM (active).

Consider `Cc1cc2c(cc1C)OC(=O)CC2`, for which the GI50 in the assay with EKVX, in the assay with 786-0, with MOLT-4, in the assay with OVCAR-3, with SR and with RXF 393 was > 100 µM (inactive) each time. Also, the GI50 in the assay with NCI-H23, in the assay with DU-145, in the assay with COLO 205, in the assay with K562, with NCI-H226 and in the assay with A549 was > 100 µM (inactive) in each case. For the same compound, the GI50 in the assay on ACHN, in the assay with HL-60, in the assay on Malme-3M, in the assay with M14, with UACC-257 and in the assay on MDA-N was > 100 µM (inactive) throughout. Besides, the GI50 in the assay with SN12C and in the assay on CAKI-1 was > 100 µM (inactive) throughout.

For `CC(=O)O[C@H]1C[C@H]2[C@@H]([C@H](OC(C)=O)C[C@@H]3CC4(CC[C@@]32C)OOC2(CCCCC2)OO4)[C@@H]2CC[C@H]([C@H](C)CCC(N)=O)[C@@]12C`, the GI50 in the assay with EKVX is 1.49 µM (inactive); with 786-0 it was 1.81 µM (inactive); with MOLT-4 it was 0.881 µM (active); in the assay on OVCAR-3, 1.54 µM (inactive); in the assay with SR it was 0.0787 µM (active); in the assay with RXF 393 it was 2.76 µM (inactive). Further, the GI50 in the assay with NCI-H23 was 1 µM (active); in the assay on DU-145, 1.93 µM (inactive); with COLO 205, 1.91 µM (inactive); in the assay with K562, 2.05 µM (inactive); with NCI-H226, 2.46 µM (inactive); with A549, 1.19 µM (inactive). The GI50 in the assay on ACHN is 1.63 µM (inactive); with HL-60 it was 1.69 µM (inactive); in the assay on Malme-3M, 2.76 µM (inactive); in the assay with M14, 3.33 µM (inactive); in the assay on UACC-257 it was 5.62 µM (inactive); in the assay on MDA-N it was 1.95 µM (inactive). The GI50 was 2.14 µM (inactive) with SN12C and 0.63 µM (active) in the assay with CAKI-1.
